# In ChEMBL document CHEMBL1153384, “Synthesis, antimalarial activity, and preclinical pharmacology of a novel series of 4'-fluoro and 4'-chloro analogues of amodiaquine. Identification of a suitable "back-up" compound for N-tert-butyl isoquine” (J Med Chem, 2009):
# Legend:
# Plasmodium falciparum [1] = assay: Antimalarial activity against chloroquine-sensitive Plasmodium falciparum 3D7; format: functional, organism-based
# Plasmodium falciparum [2] = assay: Antimalarial activity against chloroquine-resistant Plasmodium falciparum V1/S; format: functional, organism-based; details: V1S
# Plasmodium falciparum [3] = assay: Antimalarial activity against chloroquine-resistant Plasmodium falciparum K1
# Plasmodium falciparum [4] = assay: Antimalarial activity against […] Plasmodium falciparum PH3; format: functional, organism-based
# Plasmodium falciparum [5] = assay: Antimalarial activity against […] Plasmodium falciparum Dd2; format: functional, organism-based
# Plasmodium falciparum [6] = assay: Antimalarial activity against chloroquine-resistant Plasmodium falciparum TM4; format: functional, organism-based
# Plasmodium falciparum [7] = assay: Antimalarial activity against chloroquine-resistant Plasmodium falciparum TM6; format: functional, organism-based
# Plasmodium falciparum [8] = assay: Antimalarial activity against chloroquine-resistant Plasmodium falciparum J164; format: functional, organism-based
# Plasmodium falciparum [9] = assay: Antimalarial activity against chloroquine-sensitive Plasmodium falciparum HB3; format: functional, organism-based
# Heme [10] = assay: Binding affinity to heme assessed as binding constant for stepwise binding of 2 equivalent of drug to 1 molecule of heme in presence of 40% DMSO by UV-visible spectroscopy
# Heme [11] = assay: Binding affinity to heme assessed as binding constant for stepwise binding of 2 molecules of heme to 1 equivalent of drug in presence of 40% DMSO by UV-visible spectroscopy
# Cytochrome P450 2D6 = Cytochrome P450 2D6 (Homo sapiens, UniProt P10635); assay: Inhibition of human CYP2D6; format: ADME
# Sequence of Cytochrome P450 2D6 (P10635 whole entry): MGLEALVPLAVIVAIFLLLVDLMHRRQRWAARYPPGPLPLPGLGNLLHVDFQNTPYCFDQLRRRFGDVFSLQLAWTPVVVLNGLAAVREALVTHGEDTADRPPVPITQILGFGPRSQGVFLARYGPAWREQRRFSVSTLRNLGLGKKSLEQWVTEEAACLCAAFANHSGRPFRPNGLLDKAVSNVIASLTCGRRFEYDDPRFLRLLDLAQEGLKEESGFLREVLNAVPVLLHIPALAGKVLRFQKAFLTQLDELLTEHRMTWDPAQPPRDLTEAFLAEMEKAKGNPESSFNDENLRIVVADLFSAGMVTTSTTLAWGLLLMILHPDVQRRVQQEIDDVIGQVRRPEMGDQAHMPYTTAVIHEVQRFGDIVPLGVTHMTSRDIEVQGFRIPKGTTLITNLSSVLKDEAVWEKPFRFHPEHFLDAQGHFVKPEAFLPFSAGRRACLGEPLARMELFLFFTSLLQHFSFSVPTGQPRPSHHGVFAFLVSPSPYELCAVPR
# Cytochrome P450 2C9 = Cytochrome P450 2C9 (Homo sapiens, UniProt P11712); assay: Inhibition of human CYP2C9; format: ADME
# Sequence of Cytochrome P450 2C9 (P11712 whole entry): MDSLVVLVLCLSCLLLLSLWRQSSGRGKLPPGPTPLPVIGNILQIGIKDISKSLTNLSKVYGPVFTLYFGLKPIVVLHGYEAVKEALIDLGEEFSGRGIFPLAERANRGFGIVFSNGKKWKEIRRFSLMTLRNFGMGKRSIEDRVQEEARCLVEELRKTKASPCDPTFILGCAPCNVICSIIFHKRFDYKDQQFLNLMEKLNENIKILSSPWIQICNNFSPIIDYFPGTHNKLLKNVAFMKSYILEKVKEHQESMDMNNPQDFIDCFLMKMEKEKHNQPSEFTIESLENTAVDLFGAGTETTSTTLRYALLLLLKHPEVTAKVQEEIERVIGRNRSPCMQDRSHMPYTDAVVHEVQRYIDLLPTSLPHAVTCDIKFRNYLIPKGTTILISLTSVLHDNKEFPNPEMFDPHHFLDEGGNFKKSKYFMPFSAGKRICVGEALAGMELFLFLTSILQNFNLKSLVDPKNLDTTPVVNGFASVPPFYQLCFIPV
# Cytochrome P450 3A4 [12] = target: T1, Cytochrome P450 3A4 (Homo sapiens, UniProt P08684); assay: Inhibition of human CYP3A4 using DEF substrate; format: ADME
# T1 sequence (P08684 whole entry): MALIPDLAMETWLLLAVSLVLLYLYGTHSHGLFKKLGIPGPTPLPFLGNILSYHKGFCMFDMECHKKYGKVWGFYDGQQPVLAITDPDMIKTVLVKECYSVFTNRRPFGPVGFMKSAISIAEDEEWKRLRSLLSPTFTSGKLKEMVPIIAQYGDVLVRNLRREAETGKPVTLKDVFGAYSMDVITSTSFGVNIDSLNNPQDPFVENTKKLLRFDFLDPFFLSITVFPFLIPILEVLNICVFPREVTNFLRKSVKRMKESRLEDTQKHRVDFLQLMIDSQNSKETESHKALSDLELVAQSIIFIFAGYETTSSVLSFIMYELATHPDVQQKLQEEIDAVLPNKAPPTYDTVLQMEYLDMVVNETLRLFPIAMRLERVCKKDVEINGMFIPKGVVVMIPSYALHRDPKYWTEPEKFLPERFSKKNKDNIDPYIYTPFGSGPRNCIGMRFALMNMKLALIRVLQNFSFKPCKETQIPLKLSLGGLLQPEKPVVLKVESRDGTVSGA
# Cytochrome P450 2C8 = target: T2, Cytochrome P450 2C8 (Homo sapiens, UniProt P10632); assay: Inhibition of human CYP2C8; format: ADME
# T2 sequence (P10632 whole entry): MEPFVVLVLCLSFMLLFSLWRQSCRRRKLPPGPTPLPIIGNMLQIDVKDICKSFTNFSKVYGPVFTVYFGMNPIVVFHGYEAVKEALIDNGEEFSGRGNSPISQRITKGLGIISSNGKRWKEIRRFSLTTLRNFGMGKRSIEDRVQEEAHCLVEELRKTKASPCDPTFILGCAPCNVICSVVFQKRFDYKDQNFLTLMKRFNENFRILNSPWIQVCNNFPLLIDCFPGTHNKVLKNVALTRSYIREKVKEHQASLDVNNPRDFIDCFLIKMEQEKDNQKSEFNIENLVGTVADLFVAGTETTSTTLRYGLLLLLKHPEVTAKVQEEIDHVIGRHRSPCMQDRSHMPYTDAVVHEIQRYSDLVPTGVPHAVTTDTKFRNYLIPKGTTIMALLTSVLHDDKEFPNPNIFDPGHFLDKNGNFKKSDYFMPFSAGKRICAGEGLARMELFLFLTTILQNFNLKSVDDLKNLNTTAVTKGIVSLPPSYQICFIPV
# Cytochrome P450 1A2 = target: T3, Cytochrome P450 1A2 (Homo sapiens, UniProt P05177); assay: Inhibition of human CYP1A2; format: ADME
# T3 sequence (P05177 whole entry): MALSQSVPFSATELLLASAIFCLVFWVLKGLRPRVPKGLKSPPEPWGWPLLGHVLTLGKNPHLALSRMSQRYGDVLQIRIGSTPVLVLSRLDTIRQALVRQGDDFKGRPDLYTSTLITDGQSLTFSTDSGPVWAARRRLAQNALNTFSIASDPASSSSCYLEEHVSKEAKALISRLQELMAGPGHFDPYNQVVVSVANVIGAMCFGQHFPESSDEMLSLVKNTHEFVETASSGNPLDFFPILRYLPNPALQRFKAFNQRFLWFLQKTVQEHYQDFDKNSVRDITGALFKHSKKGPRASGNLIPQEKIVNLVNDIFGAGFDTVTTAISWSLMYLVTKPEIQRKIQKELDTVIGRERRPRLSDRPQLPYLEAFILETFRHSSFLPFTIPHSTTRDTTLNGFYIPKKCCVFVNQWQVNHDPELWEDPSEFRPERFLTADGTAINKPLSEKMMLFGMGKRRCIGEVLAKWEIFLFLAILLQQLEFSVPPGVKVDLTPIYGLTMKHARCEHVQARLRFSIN
# Cytochrome P450 2C19 = Cytochrome P450 2C19 (Homo sapiens, UniProt P33261); assay: Inhibition of human CYP2C19; format: ADME
# Sequence of Cytochrome P450 2C19 (P33261 whole entry): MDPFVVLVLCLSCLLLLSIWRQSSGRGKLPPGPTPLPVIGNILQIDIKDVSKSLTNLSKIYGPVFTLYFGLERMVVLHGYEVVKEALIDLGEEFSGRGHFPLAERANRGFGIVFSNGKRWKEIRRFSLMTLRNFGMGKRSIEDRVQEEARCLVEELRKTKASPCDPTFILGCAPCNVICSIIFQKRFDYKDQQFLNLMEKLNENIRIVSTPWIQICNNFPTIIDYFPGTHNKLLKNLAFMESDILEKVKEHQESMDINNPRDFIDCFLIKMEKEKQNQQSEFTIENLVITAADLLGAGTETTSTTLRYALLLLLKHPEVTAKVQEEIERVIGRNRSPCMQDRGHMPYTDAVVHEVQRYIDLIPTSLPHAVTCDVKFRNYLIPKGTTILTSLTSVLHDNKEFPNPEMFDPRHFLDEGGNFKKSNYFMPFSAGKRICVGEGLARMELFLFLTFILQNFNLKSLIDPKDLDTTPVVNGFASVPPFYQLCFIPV
# Cytochrome P450 3A4 [13] = target: T1, Cytochrome P450 3A4; assay: Inhibition of human CYP3A4 using PPR substrate; format: ADME
# [14] = Toxicity in po dosed mouse assessed as drug level causing no observed adverse effects administered as once daily for 4 days; format: organism-based; details: in vivo, read-out: Activity
# [15] = Toxicity in po dosed mouse assessed as drug level causing no observed adverse effects administered as single dose; format: organism-based; details: in vivo, read-out: Activity
# Mus musculus [16] = assay: Toxicity in po dosed mouse assessed as induction of hematological toxicity at drug dose above no observed adverse effects level; format: organism-based; details: in vivo
# Mus musculus [17] = assay: Toxicity in po dosed mouse assessed as induction of hepatotoxicity at drug dose above no observed adverse effects level; format: organism-based; details: in vivo
# [18] = target: β-hematin formation (no protein target); assay: Inhibition of beta-hematin formation as molar equivalent relative to hemin causing blockade in BHIA
# [19] = Partition coefficient, log P of the compound; format: physicochemical; details: octanol/water
# Plasmodium yoelii [20] = assay: Antimalarial activity as reduced parasitaemia against Plasmodium yoelii 17X infected CD1 mice (Mus musculus) perorally dosed daily for 4 days; format: functional; details: po, 96 h
# [21] = Oral bioavailability in rat; format: ADME, organism-based; details: in vivo
# Cytochrome P450 3A4 [22] = target: T1, Cytochrome P450 3A4; assay: Inhibition of human CYP3A4 using DEF substrate
# [23] = Clearance in iv dosed mouse; format: ADME, organism-based; details: in vivo
# Plasmodium yoelii [24] = assay: In vivo antimalarial activity against Plasmodium yoelii NS peroral dosage; format: functional; details: po
# [25] = Oral bioavailability in mouse; format: ADME, organism-based; details: in vivo
# [26] = Clearance in iv dosed rat; format: ADME, organism-based; details: in vivo
# Plasmodium yoelii [27] = assay: Antimalarial activity as minimal concentration for parasite elimination at day 23 against Plasmodium yoelii 17X intravenously inoculated CD1 mice (Mus musculus) dosed 1 hrs post infection then daily for 4 days
# [28] = Toxicity against Wistar rat hepatocytes after 6 hrs by trypan blue exclusion method; format: cell-based, Hepatocyte; details: read-out: TC50
# [29] = Distribution coefficient, log D at pH 7.4; details: octanol/water
# Mus musculus [30] = assay: Toxicity in po dosed mouse assessed as maximal nonlethal dose administered as single dose; format: organism-based; details: in vivo
# Heme [31] = test system: Heme
# Heme [32] = test system: Heme; remark: listed apart in the source
smiles,measurement,setting,value
Fc1ccc(Nc2ccnc3cc(Cl)ccc23)cc1CN1CCCC1,IC50,Plasmodium falciparum [1],29.7 nM
same,IC50,Plasmodium falciparum [2],52.5 nM
same,IC50,Plasmodium falciparum [3],45.9 nM
same,IC50,Plasmodium falciparum [4],25 nM
same,IC50,Plasmodium falciparum [5],36.9 nM
same,IC50,Plasmodium falciparum [6],46.9 nM
same,IC50,Plasmodium falciparum [7],60.8 nM
same,IC50,Plasmodium falciparum [8],34.7 nM
same,IC50,Plasmodium falciparum [9],63.7 nM
CCCN(CCC)Cc1cc(Nc2ccnc3cc(Cl)ccc23)ccc1F,IC50,Plasmodium falciparum [1],85.2 nM
CCCCN(CCCC)Cc1cc(Nc2ccnc3cc(Cl)ccc23)ccc1F,IC50,Plasmodium falciparum [1],95.2 nM
C=C[C@H]1CN2CC[C@H]1C[C@H]2[C@H](O)c1ccnc2ccc(OC)cc12,log Ks,Heme [10],4.4
same,log Ks,Heme [11],4.1
CCCCN(CCCC)Cc1cc(Nc2ccnc3cc(Cl)ccc23)ccc1Cl,IC50,Plasmodium falciparum [1],345 nM
same,IC50,Plasmodium falciparum [7],96.3 nM
same,IC50,Plasmodium falciparum [9],144 nM
CCN1CCN(Cc2cc(Nc3ccnc4cc(Cl)ccc34)ccc2Cl)CC1,IC50,Plasmodium falciparum [1],39.7 nM
same,IC50,Plasmodium falciparum [7],10.3 nM
same,IC50,Plasmodium falciparum [9],9.6 nM
CN1CCN(Cc2cc(Nc3ccnc4cc(Cl)ccc34)ccc2Cl)CC1,IC50,Plasmodium falciparum [1],86.8 nM
same,IC50,Plasmodium falciparum [7],24.4 nM
same,IC50,Plasmodium falciparum [9],54.5 nM
CCNCc1cc(Nc2ccnc3cc(Cl)ccc23)ccc1O [DESETHYL AMODIAQUINE],IC50,Cytochrome P450 2D6,6.4 µM
same,IC50,Cytochrome P450 2C9,58 µM
same,IC50,Cytochrome P450 3A4 [12],24 µM
same,IC50,Cytochrome P450 2C8,20 µM
same,IC50,Cytochrome P450 1A2,28 µM
same,IC50,Cytochrome P450 2C19,54 µM
same,IC50,Cytochrome P450 3A4 [13]; read-out: IC50,> 100 µM
CCN(CC)CCCC(C)Nc1ccnc2cc(Cl)ccc12 (stereo unspecified) [CHLOROQUINE],NOAEL at 96 h,[14],300 mg/kg
same,NOAEL,[15],300 mg/kg
same,Activity,Mus musculus [16],Toxic
same,Activity,Mus musculus [17],Toxic
Fc1ccc(Nc2ccnc3cc(Cl)ccc23)cc1Cn1ccnc1,IC50,Plasmodium falciparum [1],27.2 nM
same,IC50,[18],1.78 molar ratio
CCN(CC)Cc1cc(Nc2ccnc3cc(Cl)ccc23)ccc1F,IC50,Plasmodium falciparum [1],27.3 nM
CC(C)(C)NCc1ccc(Nc2ccnc3cc(Cl)ccc23)cc1O,IC50,Plasmodium falciparum [1],6 nM
CC(C)N1CCN(Cc2cc(Nc3ccnc4cc(Cl)ccc34)ccc2Cl)CC1,IC50,[18],1.66 molar ratio
same,logP,[19],5.14
same,IC50,Plasmodium falciparum [7],6.4 nM
same,IC50,Plasmodium falciparum [9],9.1 nM
O=C(NCc1cc([N+](=O)[O-])ccc1F)c1ncc[nH]1,IC50,Plasmodium falciparum [7],5 nM
same,IC50,Plasmodium falciparum [9],10.1 nM
CCN(CC)Cc1cc(Nc2ccnc3cc(Cl)ccc23)ccc1Cl,IC50,Plasmodium falciparum [1],30.4 nM
same,IC50,Plasmodium falciparum [7],10.2 nM
same,IC50,Plasmodium falciparum [9],12.3 nM
CCN(CC)Cc1ccc(Nc2ccnc3cc(Cl)ccc23)cc1O [ISOQUINE],IC50,Plasmodium falciparum [1],7.8 nM
same,IC50,Cytochrome P450 2D6,7 µM
same,ED50,Plasmodium yoelii [20],5.2 mg/kg
same,ED90,Plasmodium yoelii [20],7.6 mg/kg
same,IC50,Cytochrome P450 2C9,75 µM
same,bioavailability,[21],17%
same,IC50,Cytochrome P450 3A4 [22],> 100 µM
same,clearance,[23],219 mL/min/kg
same,ED50,Plasmodium yoelii [24],1.6 mg/kg
same,bioavailability,[25],21%
same,IC50,Cytochrome P450 2C8,13 µM
same,IC50,Cytochrome P450 1A2,23 µM
same,IC50,Cytochrome P450 2C19,39 µM
same,clearance,[26],89.2 mL/min/kg
same,IC50,Cytochrome P450 3A4 [13],Active
same,Activity,Plasmodium yoelii [27],>40 mg/kg
Clc1ccc2c(Nc3ccc(Cl)c(CN4CCCC4)c3)ccnc2c1,IC50,Plasmodium falciparum [7],4.2 nM
same,IC50,Plasmodium falciparum [9],15.2 nM
CC(C)(C)NCc1cccc(Nc2ccnc3cc(Cl)ccc23)c1,IC50,[18],1.65 molar ratio
CCNCc1ccc(Nc2ccnc3cc(Cl)ccc23)cc1O [DESETHYL ISOQUINE],ED50,Plasmodium yoelii [20],5.5 mg/kg
same,ED90,Plasmodium yoelii [20],8 mg/kg
same,bioavailability,[21],60%
same,clearance,[23],43.5 mL/min/kg
same,bioavailability,[25],100%
same,clearance,[26],61.5 mL/min/kg
same,Activity,Plasmodium yoelii [27],>40 mg/kg
Fc1ccc(Nc2ccnc3cc(Cl)ccc23)cc1CN1CCOCC1,IC50,Plasmodium falciparum [1],551 nM
OC(c1cc(C(F)(F)F)nc2c(C(F)(F)F)cccc12)C1CCCCN1 (stereo unspecified),log Ks,Heme [10],3.84
same,log Ks,Heme [11],3.17
CN1CCN(Cc2cc(Nc3ccnc4cc(Cl)ccc34)ccc2F)CC1,IC50,Plasmodium falciparum [1],35.1 nM
CCCN(CCC)Cc1cc(Nc2ccnc3cc(Cl)ccc23)ccc1Cl,IC50,Plasmodium falciparum [1],277 nM
Fc1ccc(Nc2ccnc3cc(Cl)ccc23)cc1CN1CCCCC1,IC50,Plasmodium falciparum [1],33.2 nM
CCN(CC)Cc1cc(Nc2ccnc3cc(Cl)ccc23)ccc1O.Cl,NOAEL at 96 h,[14],100 mg/kg
same,IC50,Plasmodium falciparum [2],8.9 nM
same,IC50,Cytochrome P450 3A4 [12],28 µM
same,CC50 at 6 h,[28],78 µM
same,log Ks,Heme [10],4.4
same,ED50,Plasmodium yoelii [24],7.4 mg/kg
same,NOAEL,[15],100 mg/kg
same,logP,[19],4.37
same,Activity,Mus musculus [16],Toxic
same,logD,[29],3.08
same,IC50,Plasmodium falciparum [7],7.2 nM
same,IC50,Plasmodium falciparum [8],18.5 nM
same,Activity,Mus musculus [30],> 500 mg/kg
same,Activity,Mus musculus [17],Toxic
same,IC50,Cytochrome P450 3A4 [13]; read-out: IC50,> 100 µM
same,IC50,Plasmodium falciparum [9],5.5 nM
same,log Ks,Heme [11],6.2
Clc1ccc2c(Nc3ccc(Cl)c(CN4CCN(c5ccccn5)CC4)c3)ccnc2c1,IC50,Plasmodium falciparum [1],27.2 nM
same,IC50,Plasmodium falciparum [7],500 nM
same,IC50,Plasmodium falciparum [9],485 nM
Clc1ccc2c(Nc3cccc(Cn4ccnc4)c3)ccnc2c1,IC50,[18],2.65 molar ratio
Clc1ccc2c(Nc3ccc(Cl)c(CN4CCCCC4)c3)ccnc2c1,IC50,Plasmodium falciparum [1],25.7 nM
same,IC50,Plasmodium falciparum [7],9.4 nM
same,IC50,Plasmodium falciparum [9],12.3 nM
c1ccncc1,log Ks,Heme [31],2.54
same,log Ks,Heme [10],2.5
same,log Ks,Heme [32],2.24
same,log Ks,Heme [11],0.18
